Experimental data as given in patent EP1198478B1, “SOMATOSTATIN ANALOGS AND THEIR USE FOR THE TREATMENT OF CANCER” (Dabur Research Foundation, priority 2000, dated 2002).
“And” between values parts separate entries of the source, which are not always exact repeats. Equal values may be shown once.

Assays:
[1] = tested on: HeP2 (Laryngeal); experiment: MTT cytotoxicity assay, HeP2 cells; type: cell-based; settings: 48 hours
Text: (§1) The cytotoxic effect of peptides SEQ ID NO: 2, SEQ ID NO: 3, SEQ ID NO: 6, and SEQ ID NO: 9, was studied by MTT assay which is based on the principle of uptake of MTT [3-[4,5-dimethylthiazol-2-yl]-2,5-diphenyl tetrazolium bromide], a tetrazolium salt by the metabolically active cells where it is metabolized by active mitochondria into a blue colored formazan product which can be read spectrophotometrically. Briefly, tumor cells PTC (primary human colon cancer cell line), KB (Oral squamous), U87MG (Glioblastoma), HBL100 (Breast), HeP2 (Laryngeal), ECV304 (Endothelial), PA-1 (Ovary) and L132 (Lung) were incubated with the peptide analogs for 48 hours at 37°C in a 96-well culture plate, followed by the addition of 100 µg MTT and further incubation of 1 hour. The formazan crystals formed inside the cells were dissolved with a detergent comprising 10% Sodium dodecyl sulfate and 0.01 N HCl and optical density read on a multiscan ELISA reader. The optical density was directly proportional to the number of proliferating and metabolically active cells.

[2] = tested on: ECV304 (Endothelial); experiment: MTT cytotoxicity assay, ECV304 cells; type: cell-based; settings: 48 hours
Text: as §1

[3] = tested on: U87MG (Glioblastoma); experiment: MTT cytotoxicity assay, U87MG cells; type: cell-based; settings: 48 hours
Text: as §1

[4] = tested on: L132 (Lung); experiment: MTT cytotoxicity assay, L132 cells; type: cell-based; settings: 48 hours
Text: as §1

[5] = tested on: PA-1 (Ovary); experiment: MTT cytotoxicity assay, PA-1 cells; type: cell-based; settings: 48 hours
Text: as §1

[6] = tested on: HBL100 (Breast); experiment: MTT cytotoxicity assay, HBL100 cells; type: cell-based; settings: 48 hours
Text: as §1

[7] = tested on: KB (Oral squamous); experiment: MTT cytotoxicity assay, KB cells; type: cell-based; settings: 48 hours
Text: as §1

[8] = tested on: PTC (primary human colon cancer cell line); experiment: MTT cytotoxicity assay, PTC cells; type: cell-based; settings: 48 hours
Text: as §1

[9] = tested on: human colon adenocarcinoma (PTC) xenografts; experiment: In vivo antitumor activity on primary tumor (colon) xenografted mice; parameters: species or system Balb/c athymic mice; settings: for tumor volumes, Avg: average of three animals; for tumor volumes of individual tumor bearing animals: individual animals (IV, V, VI for SEQ ID NO: 2; I, II, III for SEQ ID NO: 3); for percentage inhibition of tumor growth: as compared to controls, (1-tumor volume-treated/tumor volume control)* 100
Protocol: The antitumor activity of SEQ ID NO:2 and SEQ ID NO:3 was studied in human colon adenocarcinoma (PTC) xenografts in nude mice. PTC tumor xenografts were grown in Balb/c athymic mice by subcutaneous inoculation of a single cell suspension of PTC cells (15 X10^6 cells/ 100µl). The tumor bearing animals were divided into 3 groups of three animals each including one group comprising untreated control animals. Treatment with novel somatostatin analogs was initiated when the average tumor volumes, as measured using a vernier caliper, were between 400-800 mm^3. Solutions of SEQ ID NO:2 and SEQ ID NO:3 were prepared at a concentration of 85 µg/ml and intravenously administered to the assigned group of tumor bearing animals at a dose of 8.5 µg/100 µl twice a day so that the total dose of […] was administered to each animal. The treatment was continued for a period of 10 days.
The antitumor activity of the compounds was monitored by measuring tumor volumes every fourth day using the formula W*W*L*.04 (W = smaller diameter, L = larger diameter). The percentage inhibition of tumor growth was calculated using the formula (1-tumor volume-treated/tumor volume control)* 100.

[10] = day 9, intravenously 8.5 µg/100 µl twice a day, 10 days
[11] = day 13, intravenously 8.5 µg/100 µl twice a day, 10 days
[12] = day 18, intravenously 8.5 µg/100 µl twice a day, 10 days
[13] = day 21, intravenously 8.5 µg/100 µl twice a day, 10 days

D-Phe-Cys-Tyr-D-Trp-Orn-Ac5c-Pen-Thr-NH2 [SEQ ID NO: 3]
Percentage cytotoxicity ([1]; 1nM): 13.9 ± 3.6% | Percentage cytotoxicity ([1]; 10 nM): 26.8 ± 4.4% | Percentage cytotoxicity ([1]; 1µM): 10.0 ± 2.4% | Percentage cytotoxicity ([1]; 100n M): 25.8 ± 2.5% | Percentage cytotoxicity ([2]; 1nM): 13.9 ± 3.9% | Percentage cytotoxicity ([2]; 10 nM): 23.9 ± 1.3% | Percentage cytotoxicity ([2]; 1µM): 14.9 ± 1.6% | Percentage cytotoxicity ([2]; 100n M): 15.9 ± 2.9% | Percentage cytotoxicity ([3]; 1nM): 44.2 ± 3.5% | Percentage cytotoxicity ([3]; 10 nM): 45.0 ± 2.4% | Percentage cytotoxicity ([3]; 1µM): 28.9 ± 1.2% | Percentage cytotoxicity ([3]; 100n M): 42.4 ± 1.4% | Percentage cytotoxicity ([4]; 1nM): 19.0 ± 2.2% | Percentage cytotoxicity ([4]; 10 nM): 28.6 ± 4.2% | Percentage cytotoxicity ([4]; 1µM): 19.8 ± 5.5% | Percentage cytotoxicity ([4]; 100n M): 25.9 ± 2.6% | Percentage cytotoxicity ([5]; 1nM): 29.5 ± 1.0% | Percentage cytotoxicity ([5]; 10 nM): 39.5 ± 3.4% | Percentage cytotoxicity ([5]; 1µM): 19.5 ± 3.3% | Percentage cytotoxicity ([5]; 100n M): 38.5 ± 2.2% | Percentage cytotoxicity ([6]; 1nM): 14.6 ± 4.5% | Percentage cytotoxicity ([6]; 10 nM): 17.5 ± 2.8% | Percentage cytotoxicity ([6]; 1µM): 10.6 ± 1.4% | Percentage cytotoxicity ([6]; 100n M): 11.8±3.2% | Percentage cytotoxicity ([7]; 1nM): 29.8 ± 1.2% | Percentage cytotoxicity ([7]; 10 nM): 25.0 ± 4.6% | Percentage cytotoxicity ([7]; 1µM): 17.9 ± 1.3% | Percentage cytotoxicity ([7]; 100n M): 19.4 ± 5.2% | Percentage cytotoxicity ([8]; 1nM): 15 ± 1.5% | Percentage cytotoxicity ([8]; 10 nM): 11 ± 0.8% | Percentage cytotoxicity ([8]; 1µM): 13 ± 2.3% | Percentage cytotoxicity ([8]; 100n M): 13 ± 1.3% | tumor volumes, Avg ([9]; day 0, before treatment): 0 mm^3 | tumor volumes of individual tumor bearing animals ([9]; day 0, before treatment): 0 mm^3 | tumor volumes, Avg [9, 10]: 552 mm^3 | tumor volumes of individual tumor bearing animals [9, 10]: 560 mm^3 and 774 mm^3 and 324 mm^3 | tumor volumes, Avg [9, 11]: 1758 mm^3 | tumor volumes of individual tumor bearing animals [9, 11]: 1946 mm^3 and 1800 mm^3 and 1530 mm^3 | tumor volumes, Avg [9, 12]: 3674 mm^3 | tumor volumes of individual tumor bearing animals [9, 12]: 3177 mm^3 and 3610 mm^3 and 4234 mm^3 | percentage inhibition of tumor growth [9, 13]: 54.7% | tumor volumes, Avg [9, 13]: 4080 mm^3 | tumor volumes of individual tumor bearing animals [9, 13]: 0 mm^3 and 4939 mm^3 and 7301 mm^3

D-Phe-Cys-Tyr-D-Trp-Orn-Deg-Pen-Thr-NH2 [SEQ ID NO: 2]
Percentage cytotoxicity ([1]; 1nM): 14.9 ± 3.2% | Percentage cytotoxicity ([1]; 10 nM): 29.7 ± 4.4% | Percentage cytotoxicity ([1]; 1µM): 10.0 ± 2.4% | Percentage cytotoxicity ([1]; 100n M): 13.0 ± 3.5% | Percentage cytotoxicity ([2]; 1nM): 22.8 ± 3.9% | Percentage cytotoxicity ([2]; 10 nM): 19.8 ± 3.3% | Percentage cytotoxicity ([2]; 1µM): 6.0 ± 2.9% | Percentage cytotoxicity ([2]; 100n M): 14.9 ± 2.9% | Percentage cytotoxicity ([3]; 1nM): 22.8 ± 3.5% | Percentage cytotoxicity ([3]; 10 nM): 41.9 ± 2.4% | Percentage cytotoxicity ([3]; 1µM): 33.9 ± 1.2% | Percentage cytotoxicity ([3]; 100n M): 39.5 ± 1.4% | Percentage cytotoxicity ([4]; 1nM): 12.7 ± 2.9% | Percentage cytotoxicity ([4]; 10 nM): 23.4 ± 4.2% | Percentage cytotoxicity ([4]; 1µM): 17.7 ± 5.5% | Percentage cytotoxicity ([4]; 100n M): 22.8 ± 4.6% | Percentage cytotoxicity ([5]; 1nM): 29.5 ± 24% | Percentage cytotoxicity ([5]; 10 nM): 27.9 ± 3.4% | Percentage cytotoxicity ([5]; 1µM): 12.8 ± 3.3% | Percentage cytotoxicity ([5]; 100n M): 22.9 ± 2.3% | Percentage cytotoxicity ([6]; 1nM): 19.4 ± 4.5% | Percentage cytotoxicity ([6]; 10 nM): 22.8 ± 1.8% | Percentage cytotoxicity ([6]; 1µM): 10.6 ± 1.4% | Percentage cytotoxicity ([6]; 100n M): 15.7 ± 3.5% | Percentage cytotoxicity ([7]; 1nM): 28.0 ± 3.2% | Percentage cytotoxicity ([7]; 10 nM): 34.9 ± 4.6% | Percentage cytotoxicity ([7]; 1µM): 12.0 ± 4.3% | Percentage cytotoxicity ([7]; 100n M): 19.0 ± 5.2% | Percentage cytotoxicity ([8]; 1nM): 40 ± 0.5% | Percentage cytotoxicity ([8]; 10 nM): 14 ± 2.9% | Percentage cytotoxicity ([8]; 1µM): 9.0 ± 3.2% | Percentage cytotoxicity ([8]; 100n M): 20 ± 1.5% | tumor volumes, Avg ([9]; day 0, before treatment): 0 mm^3 | tumor volumes of individual tumor bearing animals ([9]; day 0, before treatment): 0 mm^3 | tumor volumes, Avg [9, 10]: 654 mm^3 | tumor volumes of individual tumor bearing animals [9, 10]: 480 mm^3 and 678 mm^3 and 806 mm^3 | tumor volumes, Avg [9, 11]: 1927 mm^3 | tumor volumes of individual tumor bearing animals [9, 11]: 1254 mm^3 and 2196 mm^3 and 2333 mm^3 | tumor volumes, Avg [9, 12]: 3886 mm^3 | tumor volumes of individual tumor bearing animals [9, 12]: 1965 mm^3 and 5240 mm^3 and 4453 mm^3 | percentage inhibition of tumor growth [9, 13]: 57.1% | tumor volumes, Avg [9, 13]: 3860 mm^3 | tumor volumes of individual tumor bearing animals [9, 13]: 491 mm^3 and 4839 mm^3 and 6250 mm^3
